Here are results for two compounds from patent US11660310B2, “Low dose combination CDA substrate drug/cedazuridine with extended administration” (Otsuka Pharmaceutical Co., Ltd., priority 2018, dated 2023).

Broadly, the AUC(0-t) is the area under the concentration-time curve up to a stated or last time point.

Series [1] has as its system sickle cell disease model. The note with it: sickle cell disease model in baboons; Am. J. Hematol. 1985; cited from earlier work.
Series [2] can be described thus: clinical. The note with it: human, in vivo, iv, 20 mg/m2, 5-Days total (AUClast) IV.

Turning to `O=C1NC(O)CCN1[C@@H]1O[C@H](CO)[C@@H](O)[C@H]1O` (some centres unmarked) [Tetrahydrouridine], the “effect on the potency of decitabine” value in series [1] is recorded as “improve the potency of decitabine”. As to `Nc1ncn([C@H]2C[C@H](O)[C@@H](CO)O2)c(=O)n1` [decitabine, 5-aza-2′-deoxycytidine], the area under the curve AUC(0-t) in series [2] was found to be 852 ng·h/mL.
